# Results as given in ChEMBL document CHEMBL1201862, “PubChem BioAssay data set” (2004).
#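 Assay format: 96-well plates, 48-hour exposure. GI50 is the concentration that inhibits growth by half.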 The source made the active and inactive calls. Cut-off read from the data, not from the text of the source: active = GI50 up to about 1.1 µM and inactive = higher.
# What was measured:
# Test in all cases: NCI-60 cell line screen, 48 h
# A498 = test system: A498
# ACHN = test system: ACHN
# COLO 205 = test system: COLO 205
# HCT-116 = test system: HCT-116
# HCT-15 = test system: HCT-15
# HL-60 = test system: HL-60
# MDA-MB-231 = test system: MDA-MB-231
# MDA-MB-435 = test system: MDA-MB-435
# MDA-N = test system: MDA-N
# Malme-3M = test system: Malme-3M
# NCI-H23 = test system: NCI-H23
# PC-3 = test system: PC-3
# SF-539 = test system: SF-539
# SW-620 = test system: SW-620
# U-251 = test system: U-251
# UACC-257 = test system: UACC-257
# M14 = test system: M14
# SK-OV-3 = test system: SK-OV-3
# UACC-62 = test system: UACC-62
SMILES,GI50 (A498),GI50 (ACHN),GI50 (COLO 205),GI50 (HCT-116),GI50 (HCT-15) [µM],GI50 (HL-60),GI50 (MDA-MB-231),GI50 (MDA-MB-435),GI50 (MDA-N),GI50 (Malme-3M),GI50 (NCI-H23),GI50 (PC-3),GI50 (SF-539),GI50 (SW-620),GI50 (U-251),GI50 (UACC-257),GI50 (M14),GI50 (SK-OV-3),GI50 (UACC-62)
C=CCc1cccc2cc(C(=O)Nc3nc(C45CC6CC(CC(C6)C4)C5)cs3)c(=O)oc12,25.2 µM (inactive),17 µM (inactive),21.4 µM (inactive),> 10 µM (inactive),67,34 µM (inactive),23.4 µM (inactive),51.5 µM (inactive),45 µM (inactive),46 µM (inactive),18 µM (inactive),29.6 µM (inactive),> 100 µM (inactive),31.7 µM (inactive),20.2 µM (inactive),32.8 µM (inactive),–,–,–
O=S(=O)(Nc1ccccc1S(=O)(=O)c1ccccc1)c1ccccc1,91.8 µM (inactive),82.2 µM (inactive),38.1 µM (inactive),77.1 µM (inactive),50.6,30.8 µM (inactive),> 100 µM (inactive),> 100 µM (inactive),> 100 µM (inactive),69.5 µM (inactive),46.7 µM (inactive),52.4 µM (inactive),> 100 µM (inactive),92.3 µM (inactive),41.1 µM (inactive),73.1 µM (inactive),> 100 µM (inactive),> 100 µM (inactive),49 µM (inactive)
CC(C)C1OC(=O)/C=C/C=C/C=C/C=C/C=C/CC(O)CC(O)CC(O)CC(O)CC(O)CC(O)CC(O)CC(O)/C=C/C1C (configuration not stated),> 100 µM (inactive),> 100 µM (inactive),> 100 µM (inactive),> 100 µM (inactive),> 100,> 100 µM (inactive),> 100 µM (inactive),> 100 µM (inactive),> 100 µM (inactive),> 100 µM (inactive),> 100 µM (inactive),> 100 µM (inactive),> 100 µM (inactive),> 100 µM (inactive),> 100 µM (inactive),> 100 µM (inactive),> 100 µM (inactive),–,–
NC(=O)C(C(N)=O)=C(O)/C(O)=C/C(=O)c1ccccc1,> 100 µM (inactive),> 100 µM (inactive),> 100 µM (inactive),> 100 µM (inactive),> 100,28.4 µM (inactive),> 100 µM (inactive),> 100 µM (inactive),> 100 µM (inactive),39.9 µM (inactive),> 100 µM (inactive),> 100 µM (inactive),> 100 µM (inactive),81.1 µM (inactive),> 100 µM (inactive),> 100 µM (inactive),> 100 µM (inactive),> 100 µM (inactive),> 100 µM (inactive)
COC(=O)C1CCC(=O)N1CN(C(C)=O)c1ccccc1Cl (configuration not stated),> 100 µM (inactive),> 100 µM (inactive),> 100 µM (inactive),> 100 µM (inactive),> 100,–,> 100 µM (inactive),> 100 µM (inactive),> 100 µM (inactive),> 100 µM (inactive),> 100 µM (inactive),> 100 µM (inactive),> 100 µM (inactive),> 100 µM (inactive),> 100 µM (inactive),> 100 µM (inactive),> 100 µM (inactive),> 100 µM (inactive),> 100 µM (inactive)
[N-]=[N+]=Nc1c([N+](=O)[O-])c(=O)n(-c2ccccc2)c2ccccc12,73.5 µM (inactive),21.7 µM (inactive),21.1 µM (inactive),20.3 µM (inactive),21.9,–,17.8 µM (inactive),21 µM (inactive),27.2 µM (inactive),17 µM (inactive),22 µM (inactive),16.6 µM (inactive),25.5 µM (inactive),29.2 µM (inactive),20.7 µM (inactive),34.4 µM (inactive),27.2 µM (inactive),57.9 µM (inactive),14.3 µM (inactive)
